# Laboratory results as given in publication PMC7269481, “ZN148 Is a Modular Synthetic Metallo-β-Lactamase Inhibitor That Reverses Carbapenem Resistance in Gram-Negative Pathogens In Vivo” (Antimicrobial Agents and Chemotherapy, 2020).
# Tests used:
# VIM-2 = biological target: T1, VIM-2 (Escherichia coli, UniProt Q5U7L7); experiment: LC-ESI-MS of VIM-2 incubated with inhibitor; settings: VIM-2 preincubated with 5 mM ZN148
# T1 construct: made in house
# Procedure: VIM-2 (8 μM final concentration) was incubated together without or with 5 mM ZN148 on ice for 30 min. Incubation was carried out in Chelex HEPES buffer (pH 7.5), and the inhibitors were diluted in Milli-Q water (Millipore/Merck) by a factor of 1,000,000 using centrifugal filters (10,000 Da; Merck). Liquid chromatography electrospray ionization Q-TOF mass spectrometry (LC-ESI-MS; Agilent Technologies, Santa Clara, CA) was performed in positive-ion mode using 0.1% formic acid in Milli-Q water and acetonitrile (VWR, Radnor, PA) at 0.4 ml/min. Spectra deconvolution was performed by using BioConfirm and MassHunter qualitative analysis (Agilent Technologies).
# NDM-1 = biological target: T2, NDM-1 (Klebsiella pneumoniae, UniProt C7C422); experiment: Zinc content determination by ICP-MS, NDM-1; type: biochemical; settings: ICP-MS after preincubation
# T2 construct: made in house
# [1] = system: NDM-1-producing K. pneumoniae 50752501; experiment: Murine neutropenic peritonitis model; type: in vivo, mice
# Procedure: The in vivo efficacy of meropenem (Mylan; Mylan Hospitals, Asker, Norway) in combination with ZN148 were evaluated in a murine neutropenic peritonitis model. Female NRMI mice (Taconic Biosciences, Lille Skensved, Denmark) were rendered neutropenic by intraperitoneal (i.p.) injection with cyclophosphamide (Baxter, Søborg, Denmark) at 4 days (200 mg/kg) and 1 day (100 mg/kg) prior to inoculation. Mice were inoculated i.p. with ∼5 × 10^6 CFU of NDM-1-producing K. pneumoniae 50752501. At 1 h postinoculation, the mice were injected subcutaneously (s.c.) in the neck region with ZN148 corresponding to 10, 33, or 100 mg/kg or vehicle. After 30 min, the mice were injected s.c. with 33 mg/kg meropenem or vehicle. Four mice were included for each treatment regime. At 5 h postinoculation, the mice were anesthetized. Blood was collected from axillary cutdown, and the mice were sacrificed. Subsequently, 2 ml of sterile saline was injected i.p., and the intraperitoneal fluid was sampled. Blood and intraperitoneal fluid were serially diluted in 0.9% NaCl and plated on blood agar plates with 5% horse blood (Statens Serum Institut, Copenhagen, Denmark) for CFU determination. Groups were analyzed with analysis of variance (ANOVA) Dunnett’s multiple-comparison test in Prism 7.04 (GraphPad Software, Inc.). P values of <0.05 were considered statistically significant. All animal experiments were approved by the National Committee of Animal Ethics, Denmark (permission 2014-15-0201-00171), and adhered to the standards of EU Directive 2010/63/EU.
# E. coli with NDM (n=102) = experiment: Meropenem MIC distribution, E. coli with NDM; type: cell-based; settings: MEM alone or +50 µM ZN148
# Procedure: (§1) MICs of carbapenems alone and in combination with inhibitors were determined by broth microdilution according to the Clinical and Laboratory Standards Institute (CLSI) guidelines ([48]) using either premade plates (TREK Diagnostic Systems/Thermo Fisher Scientific, East Grinstead, United Kingdom) with meropenem or in-house-prepared plates with meropenem, imipenem, and doripenem. ZN148 and other inhibitors were tested at a fixed concentration of 50 μM. Cation-adjusted Mueller-Hinton medium (TREK Diagnostic Systems/Thermo Fisher Scientific; Becton Dickinson, Franklin Lakes, NJ) were used as growth medium. The plates were incubated for 20 h at 37°C. ZN148, ZN222, ZN223, ZN228, and TPA were initially tested in combination with meropenem using two indicator strains: NDM-1-producing K. pneumoniae ([49], [50]) and VIM-2-producing P. aeruginosa ([51]). The activity of ZN148 were subsequently tested against two extended strain collections: (i) in combination with meropenem against MBL-producing Enterobacterales (n = 62), MBL-producing P. aeruginosa (n = 9) and MBL- and class D carbapenemase-coproducing Enterobacterales (n = 5) from the strain collection at the Norwegian National Advisory Unit on Detection of Antimicrobial Resistance and (ii) in combination with meropenem, imipenem, and doripenem against globally collected MBL-producing E. coli (n = 87), K. pneumoniae (n = 85), P. aeruginosa (n = 52), and A. baumannii (n = 6), MBL- and class A/D carbapenemase-coproducing E. coli (n = 11), K. pneumoniae (n = 15) and A. baumannii (n = 7) at IHMA Europe, Sàrl, Switzerland. E. coli ATCC 25922 and P. aeruginosa ATCC 27853 were used as quality control strains. The MBL inhibitors were also tested for intrinsic antibacterial activity against the strains.
# [2] = system: K. pneumoniae co-producing MBLs and class A/D serine carbapenemases; experiment: Carbapenem MIC, K. pneumoniae co-producing MBLs and class D carbapenemases; type: cell-based
# Procedure: as §1
# T2 sequence (C7C422 29-270, looked up): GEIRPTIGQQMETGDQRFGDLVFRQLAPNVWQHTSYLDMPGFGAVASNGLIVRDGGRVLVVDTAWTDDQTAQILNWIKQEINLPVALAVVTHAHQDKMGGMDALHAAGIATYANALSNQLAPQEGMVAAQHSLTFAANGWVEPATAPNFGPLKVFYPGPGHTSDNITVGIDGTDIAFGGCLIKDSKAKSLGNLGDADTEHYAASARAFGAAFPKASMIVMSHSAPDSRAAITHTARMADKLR
compound,measurement,setting,value
CN(C[C@H](O)[C@@H](O)[C@H](O)[C@H](O)CO)C(=O)c1ccc(CN(Cc2ccccn2)Cc2ccccn2)nc1 [ZN148],change in mass of VIM-2,VIM-2,46.2 ± 0.1 Da
same,zinc removed from enzyme,NDM-1,~1.3 molar equivalents
same,CFU with ZN148 alone compared to vehicle,"[1]; ZN148 alone, s.c.",did not result in a reduction in CFU
same,CFU/ml with meropenem + higher ZN148 doses compared to meropenem alone,[1]; meropenem 33 mg/kg + 33 and 100 mg/kg ZN148 s.c.,same effect
same,CFU/ml in peritoneal fluid compared to meropenem alone,"[1]; s.c. meropenem 33 mg/kg + ZN148 10 mg/kg, 5 h postinoculation, P < 0.0001",significantly lower CFU/ml
same,CFU/ml in blood compared to meropenem alone,"[1]; s.c. meropenem 33 mg/kg + ZN148 10 mg/kg, 5 h postinoculation, P < 0.01",significantly lower CFU/ml
C[C@@H](O)[C@H]1C(=O)N2C(C(=O)O)=C(S[C@@H]3CN[C@H](C(=O)N(C)C)C3)[C@H](C)[C@H]12 [meropenem],No. of strains with indicated MIC,E. coli with NDM (n=102); MIC 1 mg/L,2
same,No. of strains with indicated MIC,E. coli with NDM (n=102); MIC 4 mg/L,6
same,No. of strains with indicated MIC,E. coli with NDM (n=102); MIC 8 mg/L,2
same,No. of strains with indicated MIC,E. coli with NDM (n=102); MIC 16 mg/L,8
same,No. of strains with indicated MIC,E. coli with NDM (n=102); MIC 32 mg/L,19
same,No. of strains with indicated MIC,E. coli with NDM (n=102); MIC ≥64 mg/L,65
same,MIC,"[2]; NDM + OXA-48-like strains, meropenem alone or with 50µM ZN148, one value per strain",> 64 µg/mL
same,MIC,"[2]; NDM-1 + OXA-181 strain, meropenem alone or with 50µM ZN148",> 64 µg/mL
same,MIC,"[2]; NDM-5 + OXA-181 strains, carbapenem alone or with 50µM ZN148, one value per strain",> 64 µg/mL
